From paper PMC3853768 (Molecular Pain, 2013)
Entries after “also recorded” stand apart in the source; their conditions may differ.

Key:
[1] = tested on: residual ICa; format: cell-based, mouse
[2] = tested on: R-type channels (Cav2.3); format: cell-based, mouse

Row | Molecule | block of residual ICa [1] | effect on ICa of R-type blocker [2]
1 | [Cl][Cd][Cl] [CdCl2] | residual ICa was blocked | –
2 | SNX-482: blocker of R-type channels (Cav2.3), from Peptide Institute (GVDKAGCRYMFGGCSVNDDCCPRLGCHSLFSYCAWDLTFSD; UniProt P56854 1-41, looked up) | – | lack of effect; also recorded: without effect
